In US20170247393A1, “Aminoisoxazoline Compounds as Agonists of Alpha7-Nicotinic Acetylcholine Receptors” (Forum Pharmaceuticals, Inc., priority 2015, published 2017):
Structures can show the parent of a compound that is named as a salt.

target: T1, human 5-HT3 serotonin receptors (Homo sapiens, UniProt P46098); experiment: biochemical; format: binding; conditions: not given
T1 sequence (P46098 24-478): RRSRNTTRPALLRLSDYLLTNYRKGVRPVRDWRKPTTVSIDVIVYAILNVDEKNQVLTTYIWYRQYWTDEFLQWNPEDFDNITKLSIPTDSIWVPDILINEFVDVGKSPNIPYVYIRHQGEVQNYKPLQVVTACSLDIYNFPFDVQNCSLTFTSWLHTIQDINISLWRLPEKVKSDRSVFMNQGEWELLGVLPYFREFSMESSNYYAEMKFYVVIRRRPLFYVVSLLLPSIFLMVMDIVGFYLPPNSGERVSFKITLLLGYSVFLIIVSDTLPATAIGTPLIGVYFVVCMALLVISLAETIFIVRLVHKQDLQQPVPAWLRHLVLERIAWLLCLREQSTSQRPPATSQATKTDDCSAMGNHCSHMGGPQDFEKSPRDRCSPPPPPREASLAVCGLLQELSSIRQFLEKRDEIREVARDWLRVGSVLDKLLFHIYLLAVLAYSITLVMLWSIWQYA

`c1ccc(NC2=NOC3(C2)CN2CCC3CC2)cc1` (single isomer, unassigned) [Compound 1-P1, N-phenyl-4H-1′-azaspiro[isoxazole-5,3′-bicyclo[2.2.2]octan]-3-amine] was tested. Which Ki did it give?
Its Ki is 0.0084 µM.

For `Clc1ccc(NC2=NOC3(C2)CN2CCC3CC2)cc1` (single isomer, unassigned) [Compound 20-P1, N-(4-chlorophenyl)-4H-1′-azaspiro[isoxazole-5,3′-bicyclo[2.2.2]octan]-3-amine], which Ki is on record?
Its Ki is 0.069 µM.

With `Clc1ccc(NC2=NOC3(C2)CN2CCC3CC2)cc1Cl` (single isomer, unassigned) [Compound 21-P1, N-(3,4-dichlorophenyl)-4H-1′-azaspiro[isoxazole-5,3′-bicyclo[2.2.2]octan]-3-amine] as the compound, how does the Ki read?
The Ki was 0.0415 µM.

With `Clc1ccc(NC2=NO[C@@]3(C2)CN2CCC3CC2)cc1` [(R)-20, (R)—N-(4-chlorophenyl)-4H-1′-azaspiro[isoxazole-5,3′-bicyclo[2.2.2]octan]-3-amine hydrochloride] as the compound, how does the Ki read?
Its Ki is 0.11 µM.

`Clc1cccc(NC2=NO[C@@]3(C2)CN2CCC3CC2)c1` [(R)-34, (R)—N-(3-chlorophenyl)-4H-1′-azaspiro[isoxazole-5,3′-bicyclo[2.2.2]octan]-3-amine hydrochloride] was tested. Which Ki did it give?
Its Ki is 0.012 µM.

same assay, conditions: CHO cell membranes expressing human 5-HT3 receptors, [3H]BRL 43694, 120 min at room temperature; read-out: h-5HT3 Ki

How did the Ki turn out when `c1ccc2c(NC3=NOC4(C3)CN3CCC4CC3)n[nH]c2c1` (racemic) [Compound 5-P1, N-(1H-indazol-3-yl)-4′H-4-azaspiro[bicyclo[2.2.2]octane-2,5′-isoxazol]-3′-amine] was run?
Its Ki is 0.75 µM.

For `c1ccc2sc(NC3=NOC4(C3)CN3CCC4CC3)cc2c1` (racemic) [rac-12, (+/−)-N-(benzo[b]thiophen-2-yl)-4H-1′-azaspiro[isoxazole-5,3′-bicyclo[2.2.2]octan]-3-amine], which Ki is on record?
Its Ki is 1.8 µM.

With `c1ccc2cc(NC3=NOC4(C3)CN3CCC4CC3)ncc2c1` (single isomer, unassigned) [Compound 2-P2, N-(isoquinolin-3-yl)-4H-1′-azaspiro[isoxazole-5,3′-bicyclo[2.2.2]octan]-3-amine] as the compound, how does the Ki read?
The Ki was 0.81 µM.

With `c1ccc2sc(NC3=NOC4(C3)CN3CCC4CC3)nc2c1` (single isomer, unassigned) [Compound 3-P2, N-(benzo[d]thiazol-2-yl)-4H-1′-azaspiro[isoxazole-5,3′-bicyclo[2.2.2]octan]-3-amine] as the compound, how does the Ki read?
Its Ki is 0.35 µM.

Which Ki does the source give for `COc1ccc2nc(NC3=NOC4(C3)CN3CCC4CC3)sc2c1` (single isomer, unassigned) [Compound 4-P2, N-(6-methoxybenzo[d]thiazol-2-yl)-4H-1′-azaspiro[isoxazole-5,3′-bicyclo[2.2.2]octan]-3-amine] here?
The Ki was over 10 µM.

For `Clc1ccc2sc(NC3=NOC4(C3)CN3CCC4CC3)nc2c1` (single isomer, unassigned) [Compound 9-P2, N-(5-chlorobenzo[d]thiazol-2-yl)-4H-1′-azaspiro[isoxazole-5,3′-bicyclo[2.2.2]octan]-3-amine], which Ki is on record?
The Ki was over 10 µM.

Which Ki does the source give for `Clc1ccc2nc(NC3=NOC4(C3)CN3CCC4CC3)sc2c1` (single isomer, unassigned) [Compound 10-P2, N-(6-chlorobenzo[d]thiazol-2-yl)-4H-1′-azaspiro[isoxazole-5,3′-bicyclo[2.2.2]octan]-3-amine] here?
The Ki was over 10 µM.

With `c1ccc2oc(NC3=NOC4(C3)CN3CCC4CC3)nc2c1` (single isomer, unassigned) [Compound 13-P1, N-(benzo[d]oxazol-2-yl)-4H-1′-azaspiro[isoxazole-5,3′-bicyclo[2.2.2]octan]-3-amine] as the compound, how does the Ki read?
The Ki was 2.4 µM.

`c1cc2nc(NC3=NOC4(C3)CN3CCC4CC3)sc2cc1C1CC1` (single isomer, unassigned) [Compound 15-P1, N-(6-cyclopropylbenzo[d]thiazol-2-yl)-4H-1′-azaspiro[isoxazole-5,3′-bicyclo[2.2.2]octan]-3-amine] was tested. Which Ki did it give?
The Ki was over 10 µM.

Which Ki does the source give for `Clc1ccc2cc(NC3=NOC4(C3)CN3CCC4CC3)ncc2c1` (single isomer, unassigned) [Compound 19-P2, N-(7-chloroisoquinolin-3-yl)-4H-1′-azaspiro[isoxazole-5,3′-bicyclo[2.2.2]octan]-3-amine] here?
Its Ki is over 10 µM.

`Clc1cccc2nc(NC3=NO[C@@]4(C3)CN3CCC4CC3)sc12` [(R)-11, (R)—N-(7-chlorobenzo[d]thiazol-2-yl)-4H-1′-azaspiro[isoxazole-5,3′-bicyclo[2.2.2]octan]-3-amine] was tested. Which Ki did it give?
Its Ki is 0.305 µM.

With `Clc1ccc2cnc(NC3=NO[C@@]4(C3)CN3CCC4CC3)cc2c1` [(R)-18, (R)—N-(6-chloroisoquinolin-3-yl)-4H-1′-azaspiroksoxazole-5,3^1-bicyclo[2.2.2]octan1-3-amine hydrochloride] as the compound, how does the Ki read?
Its Ki is over 10 µM.

`Clc1ccc2cc(NC3=NO[C@@]4(C3)CN3CCC4CC3)ncc2c1` [(R)-19, (R)—N-(7-chloroisoquinolin-3-yl)-4H-1′-azaspiro[isoxazole-5,3′-bicyclo[2.2.2]octan]-3-amine hydrochloride] was tested. Which Ki did it give?
The Ki was over 10 µM.

For `c1ccc2nc(NC3=NO[C@@]4(C3)CN3CCC4CC3)ncc2c1` [(R)-22, (R)—N-(quinazolin-2-yl)-4H-1′-azaspiro[isoxazole-5,3′-bicyclo[2.2.2]octan]-3-amine hydrochloride], which Ki is on record?
The Ki was 5.2 µM.

`Clc1cccc2cc(NC3=NO[C@@]4(C3)CN3CCC4CC3)ncc12` [(R)-23, (R)—N-(8-chloroisoquinolin-3-yl)-4H-1′-azaspiroksoxazole-5,3^1-bicyclo[2.2.2]octan1-3-amine hydrochloride] was tested. Which Ki did it give?
Its Ki is 1.2 µM.

How did the Ki turn out when `Clc1cccc2cnc(NC3=NO[C@@]4(C3)CN3CCC4CC3)cc12` [(R)-24, (R)—N -(5-chloroisoquinolin-3-yl)-4H-1′-azaspiroksoxazole-5,3′-bicyclo[2.2.2]octan1-3-amine hydrochloride] was run?
The Ki was 0.26 µM.

Which Ki does the source give for `Cc1ccc2sc(NC3=NO[C@@]4(C3)CN3CCC4CC3)nc2c1` [(R)-25, (R)—N -(5-methylbenzo[d]thiazol-2-yl)-4H-1′-azaspiro[isoxazole-5,3′-bicyclo[2.2.2]octan]-3-amine hydrochloride] here?
The Ki was 4.2 µM.

With `c1cc2sc(NC3=NO[C@@]4(C3)CN3CCC4CC3)nc2cc1C1CC1` [(R)-26, (R)—N -(5-cyclopropylbenzo[d]thiazol-2-yl)-4H-1′-azaspiro[isoxazole-5,3′-bicyclo[2.2.2]octan]-3-amine hydrochloride] as the compound, how does the Ki read?
Its Ki is 3.1 µM.

For `Fc1ccc2sc(NC3=NO[C@@]4(C3)CN3CCC4CC3)nc2c1` [(R)-27, (R)—N-(5-fluorobenzo[d]thiazol-2-yl)-4H-1′-azaspiro[isoxazole-5,3′-bicyclo[2.2.2]octan]-3-amine hydrochloride], which Ki is on record?
Its Ki is 5.7 µM.

For `Clc1cc2nc(NC3=NO[C@@]4(C3)CN3CCC4CC3)sc2cc1Cl` [(R)-30, (R)—N-(5 ,6 - dichlor obenzo[d]thiazol-2-yl)-4H-1′-azaspiro[isoxazole-5,3′-bicyclo[2.2.2]octan]-3-amine hydrochloride], which Ki is on record?
Its Ki is over 10 µM.

For `Cc1cc2ccc(NC3=NO[C@@]4(C3)CN3CCC4CC3)cc2o1` [(R)-40, (R)—N-(2-methylbenzofuran-6-yl)-4H-1′-azaspiro[isoxazole-5,3′-bicyclo[2.2.2]octan]-3-amine hydrochloride], which Ki is on record?
The Ki was over 10 µM.

With `Cc1cc2ccc(NC3=NO[C@@]4(C3)CN3CCC4CC3)cc2s1` [(R)-42, (R)—N-(2-methylbenzo[b]thiophen-6-yl)-4H-1′-azaspiro[isoxazole-5,3′-bicyclo[2.2.2]octan]-3-amine hydrochloride] as the compound, how does the Ki read?
Its Ki is over 10 µM.

With `Cc1cc2cc(NC3=NO[C@@]4(C3)CN3CCC4CC3)ccc2s1` [(R)-43, (R)—N-(2-methylbenzo[b]thiophen-5-yl)-4H-1′-azaspiro[isoxazole-5,3′-bicyclo[2.2.2.]octan]-3-amine hydrochloride] as the compound, how does the Ki read?
The Ki was 5.9 µM.

How did the Ki turn out when `Fc1ccc2cc(NC3=NO[C@@]4(C3)CN3CCC4CC3)ncc2c1` [(R)-44, (R)—N-(7-fluoroisoquinolin-3-yl)-4H-F-azaspiro[isoxazole-5,3^1-bicyclo[2.2.2]octan]-3-amine hydrochloride] was run?
The Ki was over 10 µM.

Which Ki does the source give for `Fc1ccc2cnc(NC3=NO[C@@]4(C3)CN3CCC4CC3)cc2c1` [(R)-45, (R)—N-(6-fluoroisoquinolin-3-yl)-4H-1′-azaspiro[isoxazole-5,3′-bicyclo[2.2.2]octan]-3-amine hydrochloride] here?
Its Ki is over 10 µM.

`COc1ccc2cc(NC3=NO[C@@]4(C3)CN3CCC4CC3)ncc2c1` [(R)-46, (R)—N-(7-methoxyisoquinolin-3-yl)-4H-1′-azaspiro[isoxazole-5,3′-bicyclo[2.2.2]octan]-3-amine hydrochloride] was tested. Which Ki did it give?
The Ki was over 10 µM.

For `COc1ccc2cnc(NC3=NO[C@@]4(C3)CN3CCC4CC3)cc2c1` [(R)-47, (R)—N-(6-methoxyisoquinolin-3-yl)-4H-1′-azaspiro[isoxazole-5,3′-bicyclo[2.2.2]octan]-3-amine hydrochloride], which Ki is on record?
The Ki was over 10 µM.

How did the Ki turn out when `Clc1ccc2nc(NC3=NO[C@@]4(C3)CN3CCC4CC3)ncc2c1` [(R)-48, (R)—N-(6-chloroquinazolin-2-yl)-4H-1′-azaspiro[isoxazole-5,3′-bicyclo[2.2.2]octan]-3-amine hydrochloride] was run?
The Ki was over 10 µM.

How did the Ki turn out when `Clc1ccc2cnc(NC3=NO[C@@]4(C3)CN3CCC4CC3)nc2c1` [(R)-49, (R)—N-(7-chloroquinazolin-2-yl)-4H-1′-azaspiro[isoxazole-5,3′-bicyclo[2.2.2]octan]-3-amine] was run?
The Ki was over 10 µM.

Which Ki does the source give for `Cc1nc2ccc(NC3=NO[C@@]4(C3)CN3CCC4CC3)cc2s1` [(R)-50, (R)—N-(2-methylbenzo[d]thiazol-6-yl)-4H-1′-azaspiro[isoxazole-5,3′-bicyclo[2.2.2]octan]-3-amine hydrochloride] here?
Its Ki is 6.2 µM.
